Measurements as given in patent US7893266B2, “Detection of cancer cells in vitro using sigma-2 receptor ligands as radiotracers” (Washington University, priority 2003, dated 2011).
Like-named read-outs stand apart in the source and are kept apart here.

How the values were obtained:
[1] = Biodistribution in EMT-6 BALB/C mice; assay type: in vivo; details: Balb/c, mouse, intravenous
Description: (§1) As used herein, the term “tumor:background ratio” (i.e., tumor:fat ratio, tumor:muscle ratio, tumor:lung ratio, tumor:blood ratio) refers to the % injected dose/g tissue of the radiotracer in the tumor divided by the % injected dose/g […] in the background tissue (i.e., fat, muscle, lung, blood).
(§2) B. Biodistribution Studies of ^11C analogs in Tumor-Bearing Mice. Biodistribution studies were conducted in mature Balb/c mice that were implanted with EMT-6 mammary tumors identified herein as EMT-6 BALB/C mice to create laboratory tumor-bearing mice. The mice were implanted in the scapular region seven days prior to the study. Animals were injected with 100-150 μCi of the ^11C-labeled radiotracer and the animals were sacrificed at 5, 30, and 60 min post-i.v. injection of the radiotracer.
(§3) A series of biodistribution studies in tumor-bearing mice were also conducted with [^76Br]8, [^76Br]6, [^125I]8i, and [^125I]6i.

EMT-6 mammary tumors [2] = test: Biodistribution in EMT-6 BALB/C mice; assay type: in vivo
Description: as §1, §2, §3

[3] = system: EMT-6 breast tumor xenograft; test: MicroPET imaging studies in mice bearing EMT-6 breast tumor; assay type: in vivo, Balb-c mice
Description: The no-carrier-added (NCA) study is on the left and the sigma receptor blocking study (1 mg/kg, i.v. YUN-143) is shown on the right.
This compound was studied in mature Balb/C mice that were implanted with EMT-6 mammary tumors. The mice were implanted in the nape of the neck 7 days prior to the study. The biodistribution study consisted of three groups: 1 hr low dose (≈6 μCi), 4 hr low dose and a 4 hr high dose (≈150 μCi). The % ID/g at 1 hr for tumor, brain, fat, blood and liver were 4.0±0.4, 0.25±0.02, 1.1±0.4, 2.1±0.3 and 5.4±0.4, respectively. At 4 hr for the low dose animals the values decreased to 1.2±0.2, 0.15±0.02, 0.3±0.2, 0.82±0.08 and 1.3±0.2, respectively. […] The activity injected into the high dose animals was enough to perform microPET® imaging studies. […] This initial study has shown that this σ2 receptor compound has a high uptake into EMT-6 mammary tumors and can be imaged non-invasively. (MicroPET® is a dedicated PET scanner designed for high resolution imaging of small laboratory animals. It is available from Concorde Microsystems, Inc. 10427 Cogdill Rd, Suite 500 Knoxville, Tenn. 37932 USA.)
MicroPET® Imaging Studies—The inventors conducted microPET® imaging studies with [^76Br]6 in Balb-c mice bearing EMT-6 breast tumor xenografts to model a living mammal afflicted with cancer.

[4] = molecular target: T1, σ2 receptors in the breast tumors (Mus musculus, UniProt Q8VD00); test: In vivo blocking studies with YUN 143 in tumor-bearing mice; details: blocking agent YUN 143 (1 mg/kg, i.v.); time point of highest % I.D./gram tumor
T1 construct: mature Balb/c mice that were implanted with EMT-6 mammary tumors; from tissue; host or cells: EMT-6 mammary tumours in Balb/c mice, in vivo
T1 sequence (Q8VD00 1-176): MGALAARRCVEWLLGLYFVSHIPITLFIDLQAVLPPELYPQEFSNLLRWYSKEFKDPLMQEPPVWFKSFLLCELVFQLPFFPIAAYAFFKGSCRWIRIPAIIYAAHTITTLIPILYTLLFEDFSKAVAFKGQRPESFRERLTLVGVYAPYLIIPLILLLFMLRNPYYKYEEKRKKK
Text: The blocking agent was YUN 143, which has a high affinity for σ1 and σ2 receptors. Animals were sacrificed at the time point displaying the highest % I.D./gram tumor.
The inventors then conducted blocking studies in order to confirm that the radiotracer labeled σ2 receptors in the breast tumors. […] We have previously reported that [^18F]YUN 143 labels σ1 and σ2 receptors in breast tumor xenografts (Mach et al., 2001).

EMT-6 mammary tumors [5] = test: Comparison with [18F]FLT in tumor-bearing mice; assay type: in vivo; details: 1 hr for [11C]10; 2 hr post-i.v. injection for [76Br]6 and [125I]6i
[6] = kidney, read-out: % ID per gram kidney
[7] = liver, read-out: % ID per gram liver
[8] = spleen, read-out: % ID per gram spleen

## COc1cc2c(cc1OC)CN(CCCCNC(=O)c1cc([76Br])cc(OC)c1OC)CC2 [[^76Br]6]
[1]; [6]
  tissue uptake at 2 h: 1.85 ± 0.54 %ID/g
  tissue uptake at 4 h: 0.57 ± 0.12 %ID/g
[1]; [7]
  tissue uptake at 2 h: 1.67 ± 0.1 %ID/g
  tissue uptake at 4 h: 0.71 ± 0.08 %ID/g
[1]; lung, read-out: % ID per gram lung
  tissue uptake at 4 h: 0.29 ± 0.03 %ID/g
[1]; spleen, 5 min, read-out: % ID per gram spleen
  tissue uptake at 5 min: 12.5 ± 1.46 %ID/g
[1]; spleen, 30 min, read-out: % ID per gram spleen
  tissue uptake at 30 min: 6.91 ± 1.22 %ID/g
[1]; spleen, 1 hour, read-out: % ID per gram spleen
  tissue uptake at 1 h: 2.61 ± 0.62 %ID/g
[1]; [8]
  tissue uptake at 2 h: 0.6 ± 0.03 %ID/g
  tissue uptake at 4 h: 0.2 ± 0.03 %ID/g
EMT-6 mammary tumors [2]; 5 min
  ratio Tumor:blood: 2.25 ± 0.28
  ratio Tumor:fat: 1.30 ± 0.24
  ratio Tumor:heart: 0.65 ± 0.07
  ratio Tumor:lung: 0.19 ± 0.02
  ratio Tumor:muscle: 1.32 ± 0.16
  % ID per gram blood: 2.12 ± 0.20 % ID per gram
  % ID per gram bone: 3.10 ± 0.67 % ID per gram
  % ID per gram brain: 1.60 ± 0.15 % ID per gram
  % ID per gram fat: 3.78 ± 0.97 % ID per gram
  % ID per gram heart: 7.31 ± 0.70 % ID per gram
  % ID per gram kidney: 31.20 ± 2.92 % ID per gram
  % ID per gram liver: 10.99 ± 0.29 % ID per gram
  % ID per gram lung: 24.64 ± 2.74 % ID per gram
  % ID per gram muscle: 3.62 ± 0.27 % ID per gram
  % ID per gram tumor: 4.78 ± 0.78 % ID per gram
EMT-6 mammary tumors [2]; 30 min
  ratio Tumor:blood: 2.41 ± 0.08
  ratio Tumor:fat: 2.35 ± 0.34
  ratio Tumor:heart: 2.48 ± 0.17
  ratio Tumor:lung: 0.93 ± 0.09
  ratio Tumor:muscle: 3.70 ± 1.06
  % ID per gram blood: 2.20 ± 0.24 % ID per gram
  % ID per gram bone: 2.76 ± 0.58 % ID per gram
  % ID per gram brain: 0.41 ± 0.06 % ID per gram
  % ID per gram fat: 2.27 ± 0.16 % ID per gram
  % ID per gram heart: 2.15 ± 0.30 % ID per gram
  % ID per gram kidney: 18.51 ± 2.66 % ID per gram
  % ID per gram liver: 8.85 ± 0.52 % ID per gram
  % ID per gram lung: 5.81 ± 1.12 % ID per gram
  % ID per gram muscle: 1.54 ± 0.49 % ID per gram
  % ID per gram tumor: 5.31 ± 0.62 % ID per gram
EMT-6 mammary tumors [2]; 1 hour
  ratio Tumor:blood: 2.53 ± 0.54
  ratio Tumor:fat: 5.09 ± 1.39
  ratio Tumor:heart: 3.72 ± 0.72
  ratio Tumor:lung: 1.64 ± 0.30
  ratio Tumor:muscle: 6.76 ± 2.09
  % ID per gram blood: 1.60 ± 0.22 % ID per gram
  % ID per gram bone: 1.38 ± 0.09 % ID per gram
  % ID per gram brain: 0.17 ± 0.02 % ID per gram
  % ID per gram fat: 0.81 ± 0.16 % ID per gram
  % ID per gram heart: 1.08 ± 0.07 % ID per gram
  % ID per gram kidney: 10.81 ± 1.72 % ID per gram
  % ID per gram liver: 4.58 ± 0.36 % ID per gram
  % ID per gram lung: 2.45 ± 0.17 % ID per gram
  % ID per gram muscle: 0.61 ± 0.11 % ID per gram
  % ID per gram tumor: 3.98 ± 0.58 % ID per gram
EMT-6 mammary tumors [2]; 2 hour
  ratio Tumor:blood: 3.79 ± 0.99
  ratio Tumor:fat: 7.97 ± 1.95
  ratio Tumor:heart: 5.77 ± 0.60
  ratio Tumor:lung: 2.30 ± 0.13
  ratio Tumor:muscle: 8.81 ± 0.91
  % ID per gram blood: 0.46 ± 0.07 % ID per gram
  % ID per gram bone: 0.56 ± 0.20 % ID per gram
  % ID per gram brain: 0.05 ± 0.00 % ID per gram
  % ID per gram fat: 0.22 ± 0.05 % ID per gram
  % ID per gram heart: 0.30 ± 0.03 % ID per gram
  % ID per gram lung: 0.74 ± 0.04 % ID per gram
  % ID per gram muscle: 0.20 ± 0.03 % ID per gram
  % ID per gram tumor: 1.71 ± 0.17 % ID per gram
EMT-6 mammary tumors [2]; 4 hour
  ratio Tumor:blood: 3.17 ± 0.58
  ratio Tumor:fat: 20.69 ± 10.77
  ratio Tumor:heart: 6.24 ± 1.28
  ratio Tumor:lung: 2.36 ± 0.46
  ratio Tumor:muscle: 9.48 ± 2.14
  % ID per gram blood: 0.21 ± 0.03 % ID per gram
  % ID per gram bone: 0.12 ± 0.03 % ID per gram
  % ID per gram brain: 0.03 ± 0.00 % ID per gram
  % ID per gram fat: 0.04 ± 0.02 % ID per gram
  % ID per gram heart: 0.11 ± 0.02 % ID per gram
  % ID per gram muscle: 0.07 ± 0.01 % ID per gram
  % ID per gram tumor: 0.68 ± 0.15 % ID per gram
[3]; high dose animals, 1 and 2 hr, three animals
  microPET imaging: identification of tumors: tumors were clearly identified
[3]; no-carrier-added versus blocking with YUN-143 1 mg/kg i.v.
  microPET imaging: tumor uptake, NCA study versus sigma receptor blocking study: high uptake of the radiotracer in the NCA study (left image), which can be blocked with a known sigma receptor ligand
[4]
  in vivo blocking study result: consistent with the labeling of σ2 receptors in vivo
EMT-6 mammary tumors [5]
  tumor:background ratios compared with [18F]FLT: higher tumor:background ratios greater than that observed with [^18F]FLT
